Measured values reported in article PMC4884984, “Identification of approved and investigational drugs that inhibit hypoxia-inducible factor-1 signaling” (Oncotarget, 2016).
Where two headings read alike, the source gives them in different places.

Legend:
[1] = system: co-cultures of human aortic endothelial cells and human mesenchymal stem cells; assay: In vitro angiogenesis co-culture assay (tube formation); type: cell-based; settings: Homo sapiens, 72 h, Table 1, three-day exposure; for IC50: tube formation; for Emax: percentage of inhibition compared to DMSO controls, read-out: Angiogenesis Efficacy (converted)
Method: Cells were seeded in a 96-well clear bottom plate (Corning) for five hours and exposed to test compounds for three days at 37°C, 5% CO2.

[2] = system: hypoxia response element-beta-lactamase (HRE–bla); assay: HRE-bla reporter gene assay in ME-180 cells; type: cell-based, human; settings: Homo sapiens
Method: (§1) Cell culture of HRE–bla ME-180 cells (Cat. No. K1644, Life Technologies) and HRE–bla assay were conducted according to a reported protocol [6]. […] The fluorescence signals (460/25 nm and 530/20 nm) of CCF4 and luminescence signals of CellTiter-Glo were acquired on an Envision and a ViewLux plate readers (Perkin Elmer), respectively.

ME-180 cells = assay: Cancer cell proliferation assay, ME-180; type: cell-based; settings: Homo sapiens; for Emax: read-out: ME-180 3-Day Viability Efficacy
Method: (§2) HCT116 and ME-180 cells (ATCC) were cultured according to manufacturer's instructions. […] Cell proliferation was quantified as relative luminescence unit (RLU) values using CellTiter-Glo viability assay reagent on a ViewLux plate reader (Perkin Elmer).

HCT116 cells = assay: Cancer cell proliferation assay, HCT116; type: cell-based, human; settings: for IC50 / Emax: Homo sapiens; for Emax: read-out: HCT116 3-Day Viability Efficacy
Method: as §2

HRE–bla ME-180 cells = assay: Viability (BLA): CellTiter-Glo counter screen in HRE–bla cells; type: cell-based, human; settings: for Viability (BLA) confirmatory IC50: Table S7, 1% O2, 18 h; for IC50: Homo sapiens, ME-180, Table S7, confirmatory screen, 1% O2, 18 h
Method: as §1

[3] = system: HIF-1α–NanoLuc HCT116 cells; assay: Viability (Luc): CellTiter-Glo counter screen in HIF-1α–NanoLuc cells; type: cell-based, human; settings: Table S7, 1% O2, 18 h
HIF-1α–NanoLuc = HIF-1α–NanoLuc reporter gene assay (qHTS primary and confirmatory screens); type: cell-based, human; settings: Homo sapiens
[4] = ME-180, Table 1, percentage of inhibition compared to DMSO controls, read-out: HRE-bla Efficacy (converted)
[5] = ME-180, Table S7, confirmatory screen, read-out: HRE–bla confirmatory Efficacy
[6] = Table 1, ME-180 cells, 1% O2, 18 h, read-out: HRE-bla IC50
[7] = ME-180, Table 1, 72 h, read-out: 72-hr Viability ME-180 IC50
[8] = HCT-116, Table 1, 72 h, read-out: 72-hr Viability HCT116 IC50
[9] = ME-180, Table S7, confirmatory screen, read-out: HRE–bla confirmatory IC50
[10] = ME-180, 72 h, Table S8, 3 days, read-out: ME-180 3-Day Viability IC50
[11] = HCT-116, 72 h, Table S8, 3 days
[12] = HCT-116, 72 h, Table S8, 3 days, read-out: HCT116 3-Day Viability IC50
[13] = 18 h, read-out: IC50 (primary screen, HIF-1α–NanoLuc assay)
[14] = read-out: Efficacy (primary screen, HIF-1α–NanoLuc assay)
[15] = read-out: HIF-1α–NanoLuc confirmatory Efficacy
[16] = read-out: HIF-1α–NanoLuc primary Efficacy
[17] = read-out: HIF-1α–NanoLuc confirmatory IC50
[18] = Table S2, validation, read-out: Pathway inhibitors (validation) HIF-1α–NanoLuc Activity Efficacy
[19] = Table S7, confirmatory screen, read-out: HIF-1α–NanoLuc confirmatory Efficacy

Nc1ncn([C@@H]2O[C@H](CO)[C@@H](O)[C@H]2O)c(=O)n1 [5-Azacitidine]
IC50 [1]: 4060 ± 1490 nM
Emax [1]: 80%
Emax [2, 4]: 94%
Emax [2, 5]: 94 ± 2%
IC50 [2, 6]: 11000 ± 750 nM
IC50 (ME-180 cells; [7]): 18600 nM
IC50 (HCT116 cells; [8]): 13300 ± 1520 nM
Viability (BLA) confirmatory IC50 (HRE–bla ME-180 cells): Inactive

CC[C@@]1(O)C(=O)OCc2c1cc1n(c2=O)Cc2cc3ccccc3nc2-1 [Camptothecin]
IC50 [1]: 0.27 ± 0.31 nM
Emax [1]: 134%
Emax [2, 4]: 84%
Emax [2, 5]: 84 ± 1%
IC50 [2, 6]: 200 ± 60 nM
IC50 (ME-180 cells; [7]): 40 nM
IC50 (HCT116 cells; [8]): 1000 ± 290 nM
Viability (BLA) confirmatory IC50 (HRE–bla ME-180 cells): Inactive

COc1cccc2c1C(=O)c1c(O)c3c(c(O)c1C2=O)C[C@@](O)(C(C)=O)C[C@@H]3O[C@H]1C[C@H](N)[C@H](O)[C@H](C)O1 [Daunorubicin]
Viability (Luc) confirmatory IC50 [3]: Inactive
Emax [2, 5]: 80 ± 5%
IC50 [2, 9]: 1000 ± 440 nM
Emax (ME-180 cells; ME-180, 72 h, Table S8, 3 days): 101 ± 4%
IC50 (ME-180 cells; [10]): 170 ± 80 nM
Emax (HCT116 cells; [11]): 79 ± 28%
IC50 (HCT116 cells; [12]): 2430 ± 1400 nM
IC50 (HIF-1α–NanoLuc; [13]): 750 nM
Emax (HIF-1α–NanoLuc; [14]): 51%
Emax (HIF-1α–NanoLuc; [15]): 98 ± 8%
Emax (HIF-1α–NanoLuc; [16]): 51%
Emax (HIF-1α–NanoLuc; read-out: Pathway inhibitors (primary screen) HIF-1α–NanoLuc Activity Efficacy): 50%
Emax (HIF-1α–NanoLuc; read-out: Pathway inhibitors (validation) HIF-1α–NanoLuc Activity Efficacy): 98 ± 8%
IC50 (HIF-1α–NanoLuc; read-out: Pathway inhibitors (validation) HIF-1α–NanoLuc Activity IC50): 1960 ± 350 nM
IC50 (HRE–bla ME-180 cells): 3280 ± 1230 nM

C[C@H]1O[C@@H](O[C@H]2CC[C@@]3(C)[C@H](CC[C@@H]4[C@@H]3C[C@@H](O)[C@]3(C)[C@@H](C5=CC(=O)OC5)CC[C@]43O)C2)C[C@H](O)[C@@H]1O[C@H]1C[C@H](O)[C@H](O[C@H]2C[C@H](O)[C@H](O[C@@H]3O[C@H](CO)[C@@H](O)[C@H](O)[C@H]3O)[C@@H](C)O2)[C@@H](C)O1 [Deslanoside]
Viability (Luc) confirmatory IC50 [3]: Inactive
Emax [2, 5]: 102 ± 3%
IC50 [2, 9]: 160 ± 30 nM
Emax (ME-180 cells; ME-180, 72 h, Table S8, 3 days): 97 ± 3%
IC50 (ME-180 cells; [10]): 310 ± 40 nM
Emax (HCT116 cells; [11]): 63 ± 8%
IC50 (HCT116 cells; [12]): 2590 ± 2870 nM
IC50 (HIF-1α–NanoLuc; [13]): 300 nM
Emax (HIF-1α–NanoLuc; [14]): 115%
Emax (HIF-1α–NanoLuc; [15]): 108 ± 9%
IC50 (HIF-1α–NanoLuc; [17]): 390 ± 30 nM
Emax (HIF-1α–NanoLuc; [16]): 115%
IC50 (HRE–bla ME-180 cells): 320 ± 90 nM

C[C@H]1O[C@@H](O[C@H]2[C@@H](O)C[C@H](O[C@H]3[C@@H](O)C[C@H](O[C@H]4CC[C@@]5(C)[C@H](CC[C@@H]6[C@@H]5CC[C@]5(C)[C@@H](C7=CC(=O)OC7)CC[C@]65O)C4)O[C@@H]3C)O[C@@H]2C)C[C@H](O)[C@@H]1O [Digitoxin]
Viability (Luc) confirmatory IC50 [3]: Inactive
Emax [2, 5]: 97%
IC50 [2, 9]: 30 ± 10 nM
Emax (ME-180 cells; ME-180, 72 h, Table S8, 3 days): 101 ± 4%
IC50 (ME-180 cells; [10]): 90 ± 20 nM
Emax (HCT116 cells; [11]): 97 ± 8%
IC50 (HCT116 cells; [12]): 2290 ± 3130 nM
IC50 (HIF-1α–NanoLuc; [13]): 30 nM
Emax (HIF-1α–NanoLuc; [14]): 124%
Emax (HIF-1α–NanoLuc; [15]): 101 ± 1%
IC50 (HIF-1α–NanoLuc; [17]): 110 ± 10 nM
Emax (HIF-1α–NanoLuc; [16]): 124%
IC50 (HRE–bla ME-180 cells): 90 ± 30 nM

O=c1cc(N2CCOCC2)oc2c(-c3ccccc3)cccc12 [LY-294002]
Viability (Luc) confirmatory IC50 [3]: Inactive
Emax [2, 5]: 35 ± 8%
IC50 [2, 9]: 12000 ± 2250 nM
Emax (ME-180 cells; ME-180, 72 h, Table S8, 3 days): 73 ± 4%
IC50 (ME-180 cells; [10]): 15400 ± 1040 nM
HCT116 3-Day Viability IC50 (HCT116 cells; Table S8, 3 days): Inactive
Emax (HIF-1α–NanoLuc; [18]): 50 ± 9%
IC50 (HIF-1α–NanoLuc; Table S2, validation, read-out: Pathway inhibitors (validation) HIF-1α–NanoLuc Activity IC50): 14600 ± 3540 nM
Emax (HIF-1α–NanoLuc; [19]): 50 ± 9%
Viability (BLA) confirmatory IC50 (HRE–bla ME-180 cells): Inactive

O=C1c2c(O)ccc(O)c2C(=O)c2c(NCCNCCO)ccc(NCCNCCO)c21 [Mitoxantrone]
IC50 [1]: 4 ± 3 nM
Emax [1]: 101%
Viability (Luc) confirmatory IC50 [3]: Inactive
Emax [2, 4]: 99%
Emax [2, 5]: 99 ± 10%
IC50 [2, 6]: 860 ± 520 nM
IC50 (ME-180 cells; [7]): 110 ± 30 nM
IC50 (HCT116 cells; [8]): 11100 ± 4790 nM
IC50 (HIF-1α–NanoLuc; HCT-116, Table 1, HCT116 reporter cells, hypoxia 1% O2, 18 h, confirmatory, read-out: HIF-1α-NanoLuc IC50): 7650 ± 2130 nM
Emax (HIF-1α–NanoLuc; Table 1, percentage of inhibition compared to DMSO controls, read-out: HIF-1α-NanoLuc Efficacy (converted)): 110%
IC50 (HIF-1α–NanoLuc; Table S1, primary screen, hypoxia 1% O2, 18 h, read-out: IC50 (primary screen, HIF-1α–NanoLuc assay)): 2380 nM
Emax (HIF-1α–NanoLuc; Table S1, primary screen, read-out: Efficacy (primary screen, HIF-1α–NanoLuc assay)): 80%
Emax (HIF-1α–NanoLuc; Table S2, primary screen, read-out: Pathway inhibitors (primary screen) HIF-1α–NanoLuc Activity Efficacy): 80%
IC50 (HIF-1α–NanoLuc; Table S2, primary screen, read-out: Pathway inhibitors (primary screen) HIF-1α–NanoLuc Activity IC50): 2370 nM
Emax (HIF-1α–NanoLuc; [18]): 110 ± 5%
Emax (HIF-1α–NanoLuc; [19]): 110 ± 5%
Emax (HIF-1α–NanoLuc; Table S7, primary screen, read-out: HIF-1α–NanoLuc primary Efficacy): 80%
IC50 (HRE–bla ME-180 cells): 13400 ± 4400 nM
